Results reported in patent publication US4828979A, “Nucleotide analogs for nucleic acid labeling and detection” (Life Technologies, Inc., priority 1984, dated 1989).
Read-outs that look alike come from different tables or passages of the source.

Columns and labels:
DNA polymerase I [1] = biological target: T1, DNA polymerase I (Escherichia coli, UniProt P00582); assay: Incorporation of dATP/dCTP and analogs into plasmid DNA by nick translation (3H-dGTP tracer); assay type: biochemical, E. coli; conditions: 1.5 h, tracer 3H-dGTP incorporation relative to reaction mixture containing dNTP's and no derivatives, duplicate figures = two determinations
T1 construct: purchased BRL (Nick Translation System)
T1 sequence (P00582 whole entry): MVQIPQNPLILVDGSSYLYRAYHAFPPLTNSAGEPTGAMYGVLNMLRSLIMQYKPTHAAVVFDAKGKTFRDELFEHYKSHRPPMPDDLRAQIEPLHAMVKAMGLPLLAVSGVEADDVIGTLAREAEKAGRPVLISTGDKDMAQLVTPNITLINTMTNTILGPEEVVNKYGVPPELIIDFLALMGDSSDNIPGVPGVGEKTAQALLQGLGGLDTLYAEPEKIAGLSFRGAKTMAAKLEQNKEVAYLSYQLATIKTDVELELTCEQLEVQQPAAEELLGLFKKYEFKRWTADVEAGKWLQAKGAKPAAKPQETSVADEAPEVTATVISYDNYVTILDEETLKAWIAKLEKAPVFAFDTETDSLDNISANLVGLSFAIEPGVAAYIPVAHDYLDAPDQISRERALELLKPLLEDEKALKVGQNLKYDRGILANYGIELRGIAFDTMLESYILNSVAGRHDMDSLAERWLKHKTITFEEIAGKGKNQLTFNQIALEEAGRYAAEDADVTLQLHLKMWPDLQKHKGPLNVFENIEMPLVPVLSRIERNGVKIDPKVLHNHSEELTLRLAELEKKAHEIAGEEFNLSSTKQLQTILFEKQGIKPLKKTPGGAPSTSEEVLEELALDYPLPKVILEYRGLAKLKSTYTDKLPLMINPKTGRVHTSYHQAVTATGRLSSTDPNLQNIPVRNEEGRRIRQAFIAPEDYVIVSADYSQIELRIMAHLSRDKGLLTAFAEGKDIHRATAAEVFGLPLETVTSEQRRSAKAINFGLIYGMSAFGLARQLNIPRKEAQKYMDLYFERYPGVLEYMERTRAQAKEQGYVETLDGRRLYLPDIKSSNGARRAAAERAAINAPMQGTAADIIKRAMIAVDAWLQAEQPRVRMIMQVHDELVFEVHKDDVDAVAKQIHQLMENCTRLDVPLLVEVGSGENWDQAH
Description: Incorporation into Plasmid DNA of Biotinylated dATP Derivatives
The time course and levels of incorporation were studied as a function of linker size.
(§1) Using the BRL Nick Translation System, dATP and various derivatives were incorporated into plasmid DNA.
(§2) At each time point of interest, 2 μl from the reaction mixture was withdrawn, spotted on glass fiber filters (GF/C), washed in 10% trichloroacetic acid (TCA) once and 5% TCA twice, and dried after washing in alcohol. The filters were counted in a liquid scintillation counter.
The relative levels of incorporation of the modified nucleotides at the 90 minute time point are seen in Table 1 below, in which the data are reported as percent incorporation of the tracer radio-nucleotide (^3 H-dGTP) relative to incorporation resulting from a reaction mixture containing dNTP's and no derivatives. Duplicate figures indicate two determinations. Results for dCTP and analogs appear also.

[2] = system: streptavidin-biotin alkaline phosphatase system; assay: Sensitivity of detection of probes biotinylated with various linker lengths, spotted on nitrocellulose
Description: (§3) The reaction volume was 1 ml. At 10 minutes, 30 minutes and 90 minutes, 200 μl of the reaction mixture was removed and the reaction quenched with 30 mM EDTA. The DNA from each sample was purified on a Sephade® G-50 column. […] In Table 2, "+" or "-" indicates the presence or absence, respectively of visible spots; it can be seen that a high degree of sensitivity exists even with a relatively low level of biotin incorporation.
Probes biotinylated with various linker lengths were then compared for sensitivity of detection. Plasmid DNA was nick translated according to the described protocol with Biotin-n-dATP, for n=7, 14, 3 or 10. The biotinylated DNA's were then purified from unincorporated nucleotides by gel filtration on Sephadex® G-50 in 1×SSC (0.15 M NaCl, 0.015 M sodium citrate) containing 0.1% SDS. The biotinylated DNA was diluted into 6×SSC containing 0.2 μg/μl sheared herring sperm DNA and spotted onto nitrocellulose paper in the range of 50 pg/5 μl to 1 pg/5 μl. After 30 minutes' incubation in the NBT/BCIP dye mixture of the BRL DNA Detection System, 2 pg spots of Bio-7, 14 or 10-dATP labeled probe and a 5 pg spot of Bio-3-dATP labeled probe were visible. After 1.5 hours, the 1 pg spot of each biotin-dATP-labeled probe was visible.

human β-globin gene = assay: Detection of single-copy gene sequence in Southern blot of Eco RI digested human DNA; conditions: NBT/BCIP dye system; probe 100 ng/ml, hybridization 16-24 hours
Description: A plasmid containing the 1.1 Kb Mst II fragment of the human β-globin gene in the Eco RI site of pBR322 (obtained from Dr. Y. W. Kan, UCSF) was nick translated with either Biotin-n-dATP in the presence of dTTP, dCTP, and dGTP, or Biotin-n-dCTP in the presence of dATP, dTTP, and dGTP. All nucleotides were at 20 μM and the reaction was allowed to proceed for 90 minutes. Conditions for nick translation of the DNA probe and purification of the biotin-labeled material are given in the manual of the BRL DNA Detection System.
The biotinylated probe was hybridizedto a Southern blot of Eco RI digested human DNA or to an Eco RI digest of the plasmid DNA. Probe concentration was 100 ng/ml and hybridization was allowed to proceed for 16-24 hours under conditions described by Leary et al. (Leary, J. J., Brigati, D. J. and Ward, D. C. (1983) Proc. Natl. Acad. Sci. USA 80 4045-4049). The filter was developed with the BRL Detection System as described in the system's instruction manual. The single copy β-globin gene Fragment at 5.2 Kb was observed within 3 hours of staining with the NBT/BCIP dye system for DNA probes labeled with Biotin-n-dATP where n=3, 7, 10 or 14 and Biotin-n-dCTP where n=7 or 10.

DNA polymerase I [3] = biological target: T1, DNA polymerase I; assay: Incorporation using radiolabelled biotin-nucleotide (32P-dCTP and 3H-biotin); assay type: biochemical, E. coli; conditions: 20 μM [3H-biotin]-7-dATP; FIG. 6
Description: as §1, §2
Using the same protocol, incorporation was then performed using a radiolabelled biotin-nucleotide. Thus, the level of biotin incorporation was directly determined. 200 μl of the reaction mixture contained 10 μCi of α-^32 PdCTP and either 20 μM dATP or 20 μM [^3 H-biotin]-7-dATP. […] The lower curves show the time courses of incorporation of ^32 P-dCMP and the tritium labelled and biotinylated derivative of dAMP.

DNA polymerase I [4] = biological target: T1, DNA polymerase I; assay: Incorporation of various levels of Bio-7-dATP into plasmid DNA by nick translation; assay type: biochemical, E. coli
Description: as §1
To examine the detection sensitivity of probes made from the biotinylated nucleotides of the present invention, incorporation of various levels of Bio-7-dATP into plasmid DNA was carried out by nick translation as previously disclosed.
as §3

[5] = 90 min, 15° C., read-out: % Incorporation (90 min.)
[6] = after 30 minutes' incubation in NBT/BCIP dye mixture

Molecule	activity at 20 µM (DNA polymerase I [1]; [5]) [%]	spot of labeled probe visible (sensitivity) [2, 6] [pg]	time of staining within which single copy β-globin gene fragment at 5.2 Kb was observed (human β-globin gene) [h]	further results
O=C(CCCC[C@@H]1SC[C@@H]2NC(=O)N[C@@H]21)NCCNc1ncnc2c1ncn2[C@H]1C[C@H](O)[C@@H](COP(=O)(O)OP(=O)(O)OP(=O)(O)O)O1 [Biotin-3-dATP]	29	5	≤ 3	
O=C(CCCC[C@@H]1SC[C@@H]2NC(=O)N[C@@H]21)NCCNc1ccn([C@H]2C[C@H](O)[C@@H](COP(=O)(O)OP(=O)(O)OP(=O)(O)O)O2)c(=O)n1 [Biotin-3-dCTP]	12			
O=C(CCCC[C@@H]1SC[C@@H]2NC(=O)N[C@@H]21)NCCCCCCNc1ncnc2c1ncn2[C@H]1C[C@H](O)[C@@H](COP(=O)(O)OP(=O)(O)OP(=O)(O)O)O1 [Biotin-7-dATP, N^6-(6-hexylamidobiotin)-2'-deoxyadenosine 5'-triphosphate]	53	2	≤ 3	
O=C(CCCC[C@@H]1SC[C@@H]2NC(=O)N[C@@H]21)NCCCCCCNc1ccn([C@H]2C[C@H](O)[C@@H](COP(=O)(O)OP(=O)(O)OP(=O)(O)O)O2)c(=O)n1 [Biotin-7-dCTP]	44		≤ 3	
O=C(CCCC[C@@H]1SC[C@@H]2NC(=O)N[C@@H]21)NCCCCCCNC(=O)CNc1ncnc2c1ncn2[C@H]1C[C@H](O)[C@@H](COP(=O)(O)OP(=O)(O)OP(=O)(O)O)O1 [Biotin-10'-dATP]	6.9			
O=C(CCCC[C@@H]1SC[C@@H]2NC(=O)N[C@@H]21)NCCCCCC(=O)NCCNc1ncnc2c1ncn2[C@H]1C[C@H](O)[C@@H](COP(=O)(O)OP(=O)(O)OP(=O)(O)O)O1 [Biotin-10-dATP]	15	2	≤ 3	
O=C(CCCC[C@@H]1SC[C@@H]2NC(=O)N[C@@H]21)NCCCCCC(=O)NCCNc1ccn([C@H]2C[C@H](O)[C@@H](COP(=O)(O)OP(=O)(O)OP(=O)(O)O)O2)c(=O)n1 [Biotin-10-dCTP]	22	2	≤ 3	spot of labeled probe visible (sensitivity) ([2]; after 1.5 hours in NBT/BCIP dye mixture): 1 pg
O=C(CCCCCNC(=O)CCCC[C@@H]1SC[C@@H]2NC(=O)N[C@@H]21)NCCCCCCNc1ncnc2c1ncn2[C@H]1C[C@H](O)[C@@H](COP(=O)(O)OP(=O)(O)OP(=O)(O)O)O1 [Biotin-14-dATP]	33	2	≤ 3	
O=C(CCCCCNC(=O)CCCC[C@@H]1SC[C@@H]2NC(=O)N[C@@H]21)NCCCCCCNc1ccn([C@H]2C[C@H](O)[C@@H](COP(=O)(O)OP(=O)(O)OP(=O)(O)O)O2)c(=O)n1 [Biotin-14-dCTP]	42			
O=C(CCCCCNC(=O)CCCC[C@@H]1SC[C@@H]2NC(=O)N[C@@H]21)NCCCCCCNC(=O)CNc1ncnc2c1ncn2[C@H]1C[C@H](O)[C@@H](COP(=O)(O)OP(=O)(O)OP(=O)(O)O)O1 [Biotin-17-dATP]	6.7			
NCCCCCCNc1ccn([C@H]2C[C@H](O)[C@@H](COP(=O)(O)OP(=O)(O)OP(=O)(O)O)O2)c(=O)n1 [N^4 --(6-aminohexyl)dCTP, N^4-(6-aminohexyl)dCTP]	74			
NCCCCCCNc1ncnc2c1ncn2[C@H]1C[C@H](O)[C@@H](COP(=O)(O)OP(=O)(O)OP(=O)(O)O)O1 [N^6 --aminohexyldATP, N^6-(6-aminohexyl)dATP]				activity at 20 µM (DNA polymerase I [1]; read-out: % Incorporation (90 min.), 90 min, 15° C.): 67%
O=C(CCCC[C@@H]1SC[C@@H]2NC(=O)N[C@@H]21)NCCCCCCNc1ncnc2c1ncn2[C@H]1C[C@H](O)[C@@H](COP(=O)(O)OP(=O)(O)OP(=O)(O)O)O1 [[^3 H-biotin]-7-dATP]				correspondence of time courses of incorporation of 32P-dCMP and the tritium labelled and biotinylated derivative of dAMP (DNA polymerase I [3]): close correspondence
Nc1ncnc2c1ncn2[C@H]1C[C@H](O)[C@@H](COP(=O)(O)OP(=O)(O)OP(=O)(O)O)O1 [dATP, reference compound]	100			
Nc1ccn([C@H]2C[C@H](O)[C@@H](COP(=O)(O)OP(=O)(O)OP(=O)(O)O)O2)c(=O)n1 [dCTP, reference compound]	100			
N^6 -(6-hexylamidobiotin-2'-deoxyadenosine 5'-monophosphate [Bio-7-dAMP]				Bio-7-dAMP per Kb (DNA polymerase I [4]; 10 min nick translation): 7 per Kb; Bio-7-dAMP per Kb (DNA polymerase I [4]; 30 min nick translation): 35 per Kb; Bio-7-dAMP per Kb (DNA polymerase I [4]; 90 min nick translation): 98 per Kb
